# Data taken from US20160106711A1, “3-3-Di-Substituted-Oxindoles as Inhibitors of Translation Initiation” (President and Fellows of Harvard College, priority 2012, published 2016).
# Columns and labels:
# [1] = tested on: KLN; experiment: Cell growth assay (sulforhodamine B), KLN cells; type: cell-based, mouse; details: Mus musculus, 120 h, 5 days, SRB
# Procedure: […] Plates were then incubated with 0.4% SRB in 1% acetic acid for 1 h, washed with 1% acetic acid to remove the unbound dye, and air-dried. The bound dye was solubilized by addition of 10 mM Tris (pH 10), and the absorbance was determined in a Titertek Multiscan plate reader at 490 nm. The data calculations were carried out as described (the values for mean±SD of data from replicate wells are calculated): data are expressed in terms of % T/C [(OD of treated cells/OD of control cells)×100], as a measure of cell viability and survival in the presence of test materials. Calculations are also made for the concentration of test agents giving a T/C value of 50%, or 50% growth inhibition (IC50). With the SRB assay, a measure is made of the cell population density at time 0 (the time at which drugs are added) from two extra reference plates of inoculated cells fixed with TCA just prior to drug addition to the test plates. Thus, we have three measurements: control optical density (C), test optical density (T), and optical density at time zero (T0). The calculation is 100×[(T−T0)/(C−T0)]. If T is less than T0, cell killing has occurred and can be calculated from 100×[(T−T0)/T0]. Thus, for each drug-cell line combination, a dose-response curve is generated and three levels of effect are calculated.
# [2] = tested on: CRL-2813; experiment: Cell growth assay (sulforhodamine B), CRL-2813 cells; type: cell-based, human; details: Homo sapiens, CRL2813, 120 h, 5 days, SRB
# Procedure: (§1) Adherent mouse (KLN) and human solid tumor cells (CRL-2351, and CRL-2813) were plated in 96-well plates and maintained for 5 days in the presence of 0.54 to 6 μM of individual compound, and cell proliferation was measured by the sulforhodamine B (SRB) assay as described in ref. 11: briefly, cells were fixed in 10% cold trichloroacetic acid at 4° C. for 1 h, extensively washed with double-distilled H2O and air-dried. Plates were then incubated with 0.4% SRB in 1% acetic acid for 1 h, washed with 1% acetic acid to remove the unbound dye, and air-dried. The bound dye was solubilized by addition of 10 mM Tris (pH 10), and the absorbance was determined in a Titertek Multiscan plate reader at 490 nm. The data calculations were carried out as described (the values for mean±SD of data from replicate wells are calculated): data are expressed in terms of % T/C [(OD of treated cells/OD of control cells)×100], as a measure of cell viability and survival in the presence of test materials. Calculations are also made for the concentration of test agents giving a T/C value of 50%, or 50% growth inhibition (IC50). With the SRB assay, a measure is made of the cell population density at time 0 (the time at which drugs are added) from two extra reference plates of inoculated cells fixed with TCA just prior to drug addition to the test plates. Thus, we have three measurements: control optical density (C), test optical density (T), and optical density at time zero (T0). The calculation is 100×[(T−T0)/(C−T0)]. If T is less than T0, cell killing has occurred and can be calculated from 100×[(T−T0)/T0]. Thus, for each drug-cell line combination, a dose-response curve is generated and three levels of effect are calculated.
# [3] = tested on: CRL-2351; experiment: Cell growth assay (sulforhodamine B), CRL-2351 cells; type: cell-based, human; details: Homo sapiens, 120 h, 5 days, SRB
# Procedure: as §1
# [4] = tested on: eIF2•GTP•Met-tRNAi ternary complex; experiment: Ternary complex assay (ATF-4 assay), dual luciferase firefly/renilla ratio; type: cell-based, mouse; details: Mus musculus; for maximal fold induction at 40 µM: read-out: ATF-4 Xmax @ 40 μM; for maximal fold induction at 20 µM / maximal fold induction at 10 µM / maximal fold induction at 2.5 µM / maximal fold induction at 80 µM: read-out: ATF-4 Xmax
# Text: For assay development, a bi-directional plasmid was designed in which a common promoter/enhancer complex drives the transcription of firefly luciferase (F-luc) ORF fused to the 5′ untranslated region (UTR) of ATF-4, and of the renilla luciferase (R-luc) ORF fused to a 90-nucleotide 5′ UTR derived from the plasmid (FIG. 6A). Because the tetracycline-regulated transactivator ((tTA), required for driving transcription from this vector) is not normally expressed in the mammalian cells, stable KLN cancer cells were constructed that expressed tTA (KLN-tTA).
# The KLN-tTA colonies that drove expression of reporter genes from pBISA-DL plasmid were selected by transient transfection and dual luciferase assay. One of these KLN-tTA cell lines was transfected with the pBISA-DL^(ATF-4) expression vector, stable colonies were selected by dual luciferase assay and expanded.
# Plasmids and Ternary Complex Assay
# (ATF-4 Assay). Briefly, bi-directional mammalian expression vector pBI (Clontech, CA) was modified to expand the multiple cloning sites (MCSs) and designated thereafter as pBISA. This vector contains seven copies of the tetracycline-regulated transactivator response element (TRE), which together act as core promoter/enhancer. The TRE is flanked on both sides by minimal human cytomegalovirus (CMV) minimal promoters allowing bi-directional transcription and two MCSs. Firefly and renilla luciferases were subcloned into MCS-I and MCS-II, respectively. This plasmid, designated pBISA-DL, transcribes two mRNAs that contain the 90 nucleotide plasmid derived 5′UTR (same sequence in both mRNAs), and the ORF encoding either firefly or renilla luciferase followed by a polyadenylation sequence as described in Ziegeler, G.; Ming, J.; Koseki, J. C.; Sevinc, S.; Chen, T.; Ergun, S.; Qin, X.; Aktas, B. H. J. Biol. Chem. 2010, 285, 15408 hereby incorporated by reference. This plasmid was further modified by inserting the 5′UTR of ATF-4 into MCS-I in front of the firefly luciferase mRNA. Transcription from this direction generates an mRNA that contains the firefly luciferase ORF preceded by a 5′UTR composed of 90 nucleotides derived from the plasmid and 267 nucleotides derived from the 5′UTR of ATF-4 mRNA. Transcription from the other direction generates an mRNA that contains the renilla luciferase ORF proceeded only by the 90-nucleotide plasmid-derived sequence in the 5′UTR. This expression plasmid is called pBISA-DL(ATF-4). In the dual luciferase assay, cells expressing firefly and renilla luciferases were lysed and the extracts assayed with a Dual-Glo Luciferase assay kit, per manufacturer's instruction (Promega Inc., Madison, Wis.). The data calculations were carried out as the ratio of firefly to renilla luciferase signal as described in Chen, T.; Ozel, D.; Qiao, Y.; Harbinski, F.; Chen, L.; Denoyelle, S.; He, X.; Zvereva, N.; Supko, J. G.; Chorev, M.; Halperin, J. A.; Aktas, B. H. Nat. Chem. Biol. 2011, 7, 610 hereby incorporated by reference.
Structure (SMILES),IC50 [1] [µM],IC50 [2] [µM],IC50 [3] [µM],maximal fold induction at 40 µM [4],maximal fold induction at 20 µM [4],maximal fold induction at 10 µM [4],maximal fold induction at 2.5 µM [4],maximal fold induction at 80 µM [4]
"CC(C)(C)c1ccc(O)c(C2(c3cc(C(C)(C)C)ccc3O)C(=O)Nc3c2ccc(F)c3F)c1 [HY036, 3,3-Bis(5-tert-Butyl-2-Hydroxyphenyl)-6,7-Difluoroindolin-2-One]",11.2 ± 3.2,2.7 ± 0.1,2.4 ± 0.6,4.45 ± 1.07,–,–,–,–
COC(=O)c1cccc2c1NC(=O)C2(c1ccc(OC)cc1)c1cc(C(C)(C)C)ccc1O (stereo not shown) [Sd202],> 20,12.2 ± 0.5,3.4 ± 0.6,4.12 ± 0.42,–,–,–,–
CC(C)(C)c1ccc(O)c(C2(c3cc(C(C)(C)C)ccc3OCCN3CCCC3)C(=O)N(CCN3CCCC3)c3ccccc32)c1 (stereo not shown) [HY093],4.1 ± 0.8,7.25 ± 1.6,3.6 ± 0.7,9 ± 1.7,2.21 ± 0.75,–,–,–
CC(C)(C)c1ccc(OCCO)c(C2(c3cc(C(C)(C)C)ccc3OCCO)C(=O)Nc3ccccc32)c1 [HY169],11 ± 2.4,2.9 ± 0.1,2.7 ± 0.3,–,3.4 ± 0.1,–,–,–
CC(C)(C)c1ccc(O)c(C2(c3ccccc3)C(=O)Nc3ccc(I)cc32)c1 (stereo not shown) [Sd223],14.9 ± 3.8,2.8 ± 0.2,3.5,7.2 ± 1.2,–,–,–,–
CCCN1C(=O)C(c2cc(C(C)(C)C)ccc2O)(c2cc(C(C)(C)C)ccc2OCCN2CCCC2)c2ccccc21 (stereo not shown) [HY098],0.5 ± 0.2,0.9 ± 0.2,0.3 ± 0.1,–,–,8.7 ± 1.2,–,–
"CC(C)(C)c1ccc(OCCN2CCOCC2)c(C2(c3ccccc3)C(=O)Nc3ccccc32)c1 (stereo not shown) [Sd029, 3-(5-tert-Butyl-2-(2-morpholinoethoxy)phenyl)-3-phenylindolin-2-one]",6.8 ± 3.7,2.4 ± 0.3,3.35 ± 0.3,4 ± 0.1,–,–,–,–
COc1ccc(C2(c3cc(C(C)(C)C)ccc3O)C(=O)Nc3ccc(OC)cc32)cc1 (stereo not shown) [Sd184],14.3 ± 3,11.1 ± 1.1,2.9 ± 0.3,4 ± 0.36,–,–,–,–
"CC(C)c1ccc(O)c(C2(c3cc(C(C)C)ccc3O)C(=O)Nc3ccccc32)c1 [HY050, 3,3-Bis(2-Hydroxy-5-Isopropylphenyl)Indolin-2-One]",15.2 ± 2,2.9 ± 0.3,2.6 ± 0.5,–,3.34 ± 0.07,–,–,–
CN(C)CCOc1ccc(C(C)(C)C)cc1C1(c2cc(C(C)(C)C)ccc2OCCN(C)C)C(=O)N(CCN(C)C)c2ccccc21 [HY092],0.2 ± 0.03,0.9 ± 0.01,0.34 ± 0.18,–,–,–,16.8 ± 2.18,–
COc1ccc(C2(c3cc(C(C)(C)C)ccc3OCCN3CCOCC3)C(=O)Nc3ccccc32)cc1F (stereo not shown) [Sd205],3.4 ± 1.2,2.7 ± 0.4,2.5 ± 0.6,–,–,–,–,5.2 ± 2.1
CN(C)CCN1C(=O)C(c2cc(C(C)(C)C)ccc2O)(c2cc(C(C)(C)C)ccc2O)c2ccccc21 [HY087],> 20,> 20,2.7 ± 0.2,–,7.12 ± 1.3,–,–,–
CN(C)c1ccc(C2(c3cc(C(C)(C)C)ccc3OCCN3CCOCC3)C(=O)Nc3c2ccc(F)c3F)cc1 (stereo not shown) [Sd163],15.7 ± 1.9,11 ± 1.3,4 ± 1,–,–,–,–,5.1 ± 0.1
CN1CCN(CCOc2ccc(C(C)(C)C)cc2C2(c3cc(C(C)(C)C)ccc3OCCN3CCN(C)CC3)C(=O)Nc3ccccc32)CC1 [HY413],0.85 ± 0.02,0.74 ± 0.01,0.2 ± 0.08,–,–,9.7 ± 3.8,–,–
CN1CCN(CCOc2ccc(C(C)(C)C)cc2C2(c3cc(C(C)(C)C)ccc3O)C(=O)Nc3ccccc32)CC1 (stereo not shown) [HY080],2.9 ± 0.8,1.4 ± 0.5,0.75 ± 0.1,–,24.6 ± 3.37,–,–,–
CCN(CC)CCOc1ccc(C(C)(C)C)cc1C1(c2cc(C(C)(C)C)ccc2OCCN(CC)CC)C(=O)N(CCN(CC)CC)c2ccccc21 [HY296],1.6 ± 0.5,0.72 ± 0.23,0.59 ± 0.26,–,–,–,14.3 ± 0.78,–
CC(C)(C)c1ccc(O)c(C2(c3cc(C(C)(C)C)ccc3OCCBr)C(=O)Nc3ccccc32)c1 (stereo not shown) [HY083],11.4 ± 2.2,1 ± 0.9,2.4 ± 1.6,12.9 ± 2.11,–,–,–,–
"O=C1Nc2ccccc2C1(c1ccccc1)c1cc(C2CCCC2)ccc1O (stereo not shown) [Compound 1289, reference compound]",16 ± 2.2,2.5 ± 0.3,3.2 ± 1,2.87 ± 2.19,–,–,–,–
CCN(C)CCOc1ccc(C(C)(C)C)cc1C1(c2cc(C(C)(C)C)ccc2O)C(=O)Nc2ccccc21 (stereo not shown) [HY301],4.6 ± 1.2,1.5 ± 0.7,0.9 ± 0.2,–,15.1 ± 1.04,–,–,–
CC(C)(C)c1ccc(OCCN2CCCCC2)c(C2(c3cc(C(C)(C)C)ccc3OCCN3CCCCC3)C(=O)Nc3ccccc32)c1 [HY172],1.3 ± 0.3,11.6 ± 1.4,2.14 ± 1.28,–,–,–,–,5.91 ± 0.52
CC(C)(C)c1ccc(OCCN2CCCC2)c(C2(c3cc(C(C)(C)C)ccc3OCCN3CCCC3)C(=O)N(CCN3CCCC3)c3ccccc32)c1 [HY193],2.11 ± 1.1,1.47 ± 1,0.55 ± 0.17,9.09,–,–,12.1 ± 1.8,–
"CN(C)c1ccc(C2(c3cc(C(C)(C)C)ccc3OCCN3CCOCC3)C(=O)Nc3ccccc32)cc1 (stereo not shown) [Sd154, 3-{5-tert-butyl-2-[2-(morpholin-4-yl)ethoxy]phenyl}-3-[4-(dimethylamino)phenyl]-indol-2-one]",2.2 ± 0.6,7.5 ± 1,4.7 ± 0.3,7.15 ± 0.49,–,–,–,–
"COc1ccc(C2(c3cc(C(C)(C)C)ccc3OCCN3CCOCC3)C(=O)Nc3ccc(OC)cc32)cc1 (stereo not shown) [Sd185, 3-{5-tert-butyl-2-[2-(morpholin-4-yl)ethoxy]phenyl}-5-methoxy-3-(4-methoxyphenyl)-indol-2-one]",2.75 ± 0.3,2.9 ± 0.3,4.5 ± 0.7,3.92 ± 0.16,–,–,–,–
